ChEMBL document CHEMBL1135270, “New highly active taxoids from 9 beta-dihydrobaccatin-9,10-acetals” (2002)
≈ marks a conversion by molar mass, not a printed value.

Key:
PC-6 [1] = assay: Growth inhibition of 50% of human small cell lung cancer (PC-6) cell line in MTT assay; assay type: functional
PC-6 [2] = assay: Growth inhibition of 50% of vincristine-resistant cell line expressing P-glycoprotein (PC-6/VCR) in MTT assay; assay type: functional; conditions: Homo sapiens

Row | Compound | GI50 (PC-6 [1]) [ng/mL] | GI50 (PC-6 [2]) [ng/mL]
1 | C=CC1O[C@@H]2C3=C(C)[C@@H](OC(=O)[C@H](O)[C@@H](NC(=O)OC(C)(C)C)c4ccccc4)C[C@@](O)([C@@H](OC(=O)c4ccccc4)[C@@H]4[C@]5(OC(C)=O)CO[C@@H]5C[C@H](O)[C@@]4(C)[C@@H]2O1)C3(C)C (stereo not given in full) | 0.365 (≈ 0.43 nM) | 4.64 (≈ 5.47 nM)
2 | C=CC1O[C@@H]2C3=C(C)[C@@H](OC(=O)[C@H](O)[C@@H](NC(=O)OC(C)(C)C)c4ccco4)C[C@@](O)([C@@H](OC(=O)c4ccccc4)[C@@H]4[C@]5(OC(C)=O)CO[C@@H]5C[C@H](O)[C@@]4(C)[C@@H]2O1)C3(C)C (stereo not given in full) | 0.743 (≈ 0.887 nM) | 1.27 (≈ 1.52 nM)
3 | COc1ccc(C2O[C@@H]3C4=C(C)[C@@H](OC(=O)[C@H](O)[C@@H](NC(=O)OC(C)(C)C)c5ccco5)C[C@@](O)([C@@H](OC(=O)c5ccccc5)[C@@H]5[C@]6(OC(C)=O)CO[C@@H]6C[C@H](O)[C@@]5(C)[C@@H]3O2)C4(C)C)cc1 (stereo not given in full) | 6.26 (≈ 6.82 nM) | 9.25 (≈ 10.1 nM)
4 | CC(=O)O[C@@]12CO[C@@H]1C[C@H](O)[C@@]1(C)[C@@H]3OC(C)(C)O[C@@H]3C3=C(C)[C@@H](OC(=O)[C@H](O)[C@@H](NC(=O)OC(C)(C)C)c4ccco4)C[C@@](O)([C@@H](OC(=O)c4ccccc4)[C@H]21)C3(C)C | 0.331 (≈ 0.394 nM) | 1.88 (≈ 2.24 nM)
5 | CC(=O)O[C@@]12CO[C@@H]1C[C@H](O)[C@@]1(C)[C@H](O)[C@H](O)C3=C(C)[C@@H](OC(=O)[C@H](O)[C@@H](NC(=O)OC(C)(C)C)c4ccco4)C[C@@](O)([C@@H](OC(=O)c4ccccc4)[C@H]21)C3(C)C | 21 (≈ 26.3 nM) | 422 (≈ 528 nM)
